Reference: US11530196B2, “Pyrimidine compound acting on EGFR and ERBB2” (CHINA RESOURCES PHARMACEUTICAL HOLDINGS COMPANY LIMITED, priority 2019, dated 2022)
pIC50: −log10 of the molar value. Values joined by “and” are separate entries in the source; they are usually repeats but may differ in a detail not shown here. Identical values can stand only once.

What was measured:
[1] = target: Ba/F3 EGFR-D770_N771insSVD (Homo sapiens, UniProt P00533, DUP768-770, cells depend on it); assay: Anti-proliferation against Ba/F3 exon 20 insertion mutant cells (SVD); assay type: cell-based, mouse; conditions: CTG, 72 hours, read-out: Mutant cells IC50 (anti-proliferation)
Chain of Ba/F3 EGFR-D770_N771insSVD (P00533 with tags, fused parts or gaps DUP768-770): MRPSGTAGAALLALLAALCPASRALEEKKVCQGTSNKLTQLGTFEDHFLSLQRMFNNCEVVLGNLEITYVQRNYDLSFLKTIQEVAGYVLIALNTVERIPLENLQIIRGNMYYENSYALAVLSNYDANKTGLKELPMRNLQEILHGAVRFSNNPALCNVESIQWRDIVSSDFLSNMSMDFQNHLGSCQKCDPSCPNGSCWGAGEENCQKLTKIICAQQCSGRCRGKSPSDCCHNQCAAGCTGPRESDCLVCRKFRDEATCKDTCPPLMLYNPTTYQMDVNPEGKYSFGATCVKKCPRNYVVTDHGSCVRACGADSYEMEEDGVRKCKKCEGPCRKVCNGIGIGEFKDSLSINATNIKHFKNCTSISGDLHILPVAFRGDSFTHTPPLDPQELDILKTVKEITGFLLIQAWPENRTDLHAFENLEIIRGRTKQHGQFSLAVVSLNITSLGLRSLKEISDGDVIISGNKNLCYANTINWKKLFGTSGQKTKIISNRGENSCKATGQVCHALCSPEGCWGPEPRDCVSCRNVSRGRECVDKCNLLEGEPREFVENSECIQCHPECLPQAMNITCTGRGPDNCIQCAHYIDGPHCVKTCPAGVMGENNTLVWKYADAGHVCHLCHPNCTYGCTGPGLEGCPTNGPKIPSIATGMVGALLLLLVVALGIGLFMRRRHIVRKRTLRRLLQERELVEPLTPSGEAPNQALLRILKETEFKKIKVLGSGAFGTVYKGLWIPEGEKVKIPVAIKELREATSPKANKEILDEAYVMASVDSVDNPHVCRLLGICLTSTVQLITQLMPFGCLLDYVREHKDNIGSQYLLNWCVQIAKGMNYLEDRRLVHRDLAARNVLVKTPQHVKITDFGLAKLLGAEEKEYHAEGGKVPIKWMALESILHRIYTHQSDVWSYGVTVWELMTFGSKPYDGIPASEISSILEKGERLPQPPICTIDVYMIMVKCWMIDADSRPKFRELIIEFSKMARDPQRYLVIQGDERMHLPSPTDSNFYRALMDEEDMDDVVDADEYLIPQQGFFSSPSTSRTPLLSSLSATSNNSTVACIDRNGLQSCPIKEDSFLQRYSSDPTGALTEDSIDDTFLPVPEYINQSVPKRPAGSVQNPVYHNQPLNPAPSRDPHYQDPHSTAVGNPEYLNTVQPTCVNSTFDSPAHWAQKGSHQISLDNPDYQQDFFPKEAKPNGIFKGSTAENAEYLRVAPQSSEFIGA
Text: (§1) RPMI1640 medium was purchased from Hyclone, FBS fetal bovine serum was purchased from GBICO, and trypsin-EDTA were both purchased from Giboco. DPBS was purchased from Corning, penicillin/streptomycin solution was purchased from Hyclone, and Cell-Titer Glo reagent was purchased from Promega (Cat. No. G7572). Ba/F3 EGFR-D770_N771insSVD, Ba/F3 EGFR-H773_V774insNPH, Ba/F3 EGFR-V769_D770insASV, BaF3 ERBB2 A775_G776 ins YVMA, the cell lines were constructed by Beijing Kang Yuan Bochuang Biotechnology Co., Ltd. Plate reading instrument: Envision (PerkinElmer).
Cells in logarithmic growth phase were harvested and cell counts were performed using a […]. Cell viability was detected by the Taipan Blue rejection assay. The cell concentration was adjusted; the cell suspension was added to a 96-well plate separately. Cells in 96-well plates were incubated overnight at 37° C., 5% CO2, and 95% humidity. To prepare the drug solution, 10 μL of drug solution was added to each well of the 96-well plate inoculated with cells, and three replicate wells were set up for each drug concentration. The cells in the 96-well plates added with drugs were placed at 37° C., 5% CO2, 95% humidity and continued to incubate for 72 hours, after which CTG analysis was performed and the cells were vibrated on an orbital shaker to lyse the cells. The cell plate was placed at room temperature to stabilize the cold light signal, and the cold light values were read. The data were analyzed using GraphPad Prism 7.0 software, and a nonlinear S-curve regression was used to fit the data to derive the dose-effect curve from which the IC50 values were calculated.
The IC50 of anti-proliferation activity against Ba/F3 Exon20 insertion mutant cells of the compounds of the present disclosure is shown in Table 5.
Ba/F3 exon 20 insertion mutant cells are cell lines with SVD, NPH, ASV, and YVMA insertion mutations artificially constructed using mouse B cells, and it can be seen from Table 5 that the compounds of the present disclosure have better cellular anti-proliferation activity against the […] exon 20 insertion mutations such as SVD, NPH, ASV, and YVMA, and also show better anti-proliferation activity against common exon 20 insertion mutations such as SVD mutation.

[2] = target: EGFR L858R/T790M double mutant enzyme (Homo sapiens, UniProt P00533, L858R/T790M); assay: Kinase assay (HTRF KinEASE TK), EGFR L858R/T790M; assay type: biochemical
Chain of EGFR L858R/T790M double mutant enzyme (P00533 25-1210 T790M/L858R): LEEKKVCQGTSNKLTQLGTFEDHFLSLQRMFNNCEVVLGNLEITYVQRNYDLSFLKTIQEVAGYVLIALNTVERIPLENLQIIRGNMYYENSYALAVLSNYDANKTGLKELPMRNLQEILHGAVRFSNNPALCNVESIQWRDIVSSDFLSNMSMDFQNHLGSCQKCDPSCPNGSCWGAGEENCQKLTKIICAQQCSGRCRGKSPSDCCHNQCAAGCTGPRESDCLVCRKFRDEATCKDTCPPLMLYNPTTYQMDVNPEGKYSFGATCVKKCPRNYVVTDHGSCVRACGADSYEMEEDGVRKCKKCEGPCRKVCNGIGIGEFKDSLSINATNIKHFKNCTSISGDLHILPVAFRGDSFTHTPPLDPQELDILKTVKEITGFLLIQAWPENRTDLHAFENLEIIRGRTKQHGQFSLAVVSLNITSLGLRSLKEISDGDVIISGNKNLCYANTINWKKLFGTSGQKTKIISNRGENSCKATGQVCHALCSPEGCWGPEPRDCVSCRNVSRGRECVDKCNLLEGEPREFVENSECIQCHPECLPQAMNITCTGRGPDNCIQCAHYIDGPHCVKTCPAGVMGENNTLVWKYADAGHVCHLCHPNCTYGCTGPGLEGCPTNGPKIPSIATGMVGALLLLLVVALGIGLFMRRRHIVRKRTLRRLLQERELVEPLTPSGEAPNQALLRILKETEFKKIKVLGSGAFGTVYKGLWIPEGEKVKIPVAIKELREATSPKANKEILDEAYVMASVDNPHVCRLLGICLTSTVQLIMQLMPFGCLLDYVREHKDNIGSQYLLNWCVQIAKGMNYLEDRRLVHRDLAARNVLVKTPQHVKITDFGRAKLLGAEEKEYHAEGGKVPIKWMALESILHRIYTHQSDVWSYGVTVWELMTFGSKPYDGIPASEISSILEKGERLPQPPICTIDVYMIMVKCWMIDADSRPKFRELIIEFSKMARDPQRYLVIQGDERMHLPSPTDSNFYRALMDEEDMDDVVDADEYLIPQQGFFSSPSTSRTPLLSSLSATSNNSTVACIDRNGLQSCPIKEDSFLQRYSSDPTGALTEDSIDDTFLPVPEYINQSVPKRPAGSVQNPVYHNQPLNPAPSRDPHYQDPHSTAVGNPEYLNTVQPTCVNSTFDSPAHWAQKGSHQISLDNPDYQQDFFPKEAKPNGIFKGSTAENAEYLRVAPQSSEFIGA
Text: To detect the inhibitory effect of compounds on EGFR WT, EGFR (D770_N771insNPG), ERBB2 (V777_G778ins>CG), EGFR T790M/L858R enzyme activities
EGFR WT (Invitrogen, Cat. No. PR7295B), EGFR [L858R] (Invitrogen, Cat. No. PR7447A), EGFR [d746-750] (Invitrogen, Cat. No. PV6179), ATP (Sigma, Cat. No. A7699-1G), DMSO (Sigma, Cat. No. D2650), DTT (Sigma, Cat. No. 43815), 384-well plate, compound dilution plate (Greiner, Cat. No. 781280), 384-well plate, test plate (Perkin Elmer, Cat. No. 6007299), HTRF KinEASE TK Kit (Cisbio, Cat. No. 62TK0PEB), magnesium chloride (Sigma, Cat. No. M1028), Orthovanadate (Sigma, Cat. No. 56508), BSA (Sigma, Cat. No. A7030), HEPES (Life technology, Cat. No. 11344-041).
The final test concentrations of the test compounds ranged from 10 μM to 0.17 nM in 3-fold gradient dilutions at 11 concentrations.
The preparation of the buffer, 50 mM HEPES (pH 7.5), 0.01% BSA, 5 mM MgCl2, and 0.1 mM Orthovanadate were contained in the buffer. After the preparation of the buffer, the enzyme and substrate were mixed with pre-diluted prepared compounds of different concentrations, and the mixture was placed at room temperature for 15 minutes. […] After the reaction was completed, the antibody was added to the assay, incubated at room temperature for 60 minutes and then detected by Envision (plate reading instrument), and data were collected. […]

[3] = target: BaF3 ERBB2 A775_G776 ins YVMA (Homo sapiens, UniProt P04626, DUP772-775, cells depend on it); assay: Anti-proliferation against Ba/F3 exon 20 insertion mutant cells (ERBB2 YVMA); assay type: cell-based, mouse; conditions: CTG, 72 hours, read-out: Mutant cells IC50 (anti-proliferation)
Chain of BaF3 ERBB2 A775_G776 ins YVMA (P04626 with tags, fused parts or gaps DUP772-775): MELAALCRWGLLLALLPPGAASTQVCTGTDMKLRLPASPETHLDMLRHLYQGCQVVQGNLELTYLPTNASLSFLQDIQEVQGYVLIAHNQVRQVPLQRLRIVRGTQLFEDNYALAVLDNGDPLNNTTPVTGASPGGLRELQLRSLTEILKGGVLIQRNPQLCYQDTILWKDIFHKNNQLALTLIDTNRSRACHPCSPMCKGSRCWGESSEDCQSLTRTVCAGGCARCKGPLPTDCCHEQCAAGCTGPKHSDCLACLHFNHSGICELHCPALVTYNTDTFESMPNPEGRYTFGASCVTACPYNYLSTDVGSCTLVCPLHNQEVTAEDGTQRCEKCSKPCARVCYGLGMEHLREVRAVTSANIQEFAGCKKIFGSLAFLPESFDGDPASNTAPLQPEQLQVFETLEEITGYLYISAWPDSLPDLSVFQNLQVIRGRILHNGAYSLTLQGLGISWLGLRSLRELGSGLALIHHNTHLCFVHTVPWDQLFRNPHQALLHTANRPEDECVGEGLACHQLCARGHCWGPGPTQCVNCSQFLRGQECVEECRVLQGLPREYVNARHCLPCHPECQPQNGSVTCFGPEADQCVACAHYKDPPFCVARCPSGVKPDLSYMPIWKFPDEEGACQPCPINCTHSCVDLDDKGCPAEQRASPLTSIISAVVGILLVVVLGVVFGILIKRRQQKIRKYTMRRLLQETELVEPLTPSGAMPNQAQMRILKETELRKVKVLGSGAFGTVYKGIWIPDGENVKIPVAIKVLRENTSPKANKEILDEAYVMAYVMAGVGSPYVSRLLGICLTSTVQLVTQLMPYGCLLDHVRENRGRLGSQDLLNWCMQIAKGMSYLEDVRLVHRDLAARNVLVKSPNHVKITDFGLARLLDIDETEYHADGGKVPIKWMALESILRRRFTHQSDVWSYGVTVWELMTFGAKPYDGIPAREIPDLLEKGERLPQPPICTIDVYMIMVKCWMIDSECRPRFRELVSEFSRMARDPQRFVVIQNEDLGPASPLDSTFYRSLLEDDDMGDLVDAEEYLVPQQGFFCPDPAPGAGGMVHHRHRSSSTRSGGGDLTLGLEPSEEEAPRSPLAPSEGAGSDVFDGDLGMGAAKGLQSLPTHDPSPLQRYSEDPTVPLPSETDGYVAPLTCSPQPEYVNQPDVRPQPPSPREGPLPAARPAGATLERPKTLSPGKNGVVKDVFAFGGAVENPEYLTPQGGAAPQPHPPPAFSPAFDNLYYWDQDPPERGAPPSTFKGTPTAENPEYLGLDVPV
Text: as §1
Cells in logarithmic growth phase were harvested and cell counts were performed using a […]. Cell viability was detected by the Taipan Blue rejection assay. The cell concentration was adjusted; the cell suspension was added to a 96-well plate separately. Cells in 96-well plates were incubated overnight at 37° C., 5% CO2, and 95% humidity. […] The cell plate was placed at room temperature to stabilize the cold light signal, and the cold light values were read. The data were analyzed using GraphPad Prism 7.0 software, and a nonlinear S-curve regression was used to fit the data to derive the dose-effect curve from which the IC50 values were calculated. […]

[4] = Compound stability test in plasma (rat); assay type: in vitro ADME, SD rat
Experimental: (§2) In this study, mouse, SD rat, Beagle, cynomolgus monkey and human plasma were used as materials to investigate the stability of the tested compounds in the plasma of the above five species. Propantheline, Enalapril, Bisacodyl and Procaine were used as control compounds.
(§3) The experimental conditions for the test compounds were as follows: • test concentration: 2 μM (DMSO ≤0.5%); • incubation times: 0, 10, 30, 60 and 120 minutes; • frozen plasma (from multiple species) was used in the test system; • incubation conditions: 37° C.
(§4) The mixed frozen plasma was thawed in a 37° C. water bath prior to the experiment. Plasma was centrifuged at 4000 rpm for 5 minutes and cleared if there was a clot. The pH will be adjusted to 7.4±0.1 if required.
(§5) The intermediate solution of 1 mM compound and positive control was prepared by diluting 10 mM stock solution with 90 μL of dimethyl sulfoxide. 100 μM solution was prepared by diluting 20 μL of intermediate solution (1 mM) with 180 μL of 45% methanol/water.
(§6) 2 μL of 100 μM solution was added to 98 μL of blank plasma to achieve a final concentration of 2 μM (in duplicate) of the sample, and the sample was incubated in a 37° C. water bath. At each time point (0, 10, 30, 60 and 120 min), 400 μL of termination solution (200 ng/mL toluenesulfonylurea and 200 ng/mL labetalol, 50% ACN/MeOH) was added to precipitate the proteins and mixed thoroughly. […]

[5] = Compound stability test in plasma (mouse); assay type: in vitro ADME
Experimental: as §2, §3, §4, §5, §6

- GI50 [1]: 27 nM and 24 nM
- pIC50 [2]: 8.43
- GI50 [3]: 37 nM
- In vitro plasma stability (Residual percentage) ([4]; 120 minutes, 2 μM, 37° C.): 87.9%
- half-life at 2 µM ([4]; Sprague-Dawley (SD), pH 7.4, 37° C., read-out: In vitro plasma half-life T1/2): > 4.82 h
- In vitro plasma stability (Residual percentage) ([5]; 120 minutes, 2 μM, 37° C.): 45%
- half-life at 2 µM ([5]; pH 7.4, 37° C., read-out: In vitro plasma half-life T1/2): 1.81 h
SMILES: C=CC(=O)Nc1cc(Nc2ncc(C(=O)OC(C)C)c(-c3cn(OC)c4ccccc34)n2)c(OC)cc1N(C)CCN(C)C.CS(=O)(=O)O [Compound 1]
